Source: patent US4343805A, “Heterocyclic compounds” (John Wyeth & Brother Limited, priority 1978, dated 1982)

Key:
[1] = test system: Stress-induced erosion; assay: Stress-induced erosion test (Senay & Levine), anti-ulcer activity; format: in vivo
Experimental: (§1) Anti-ulcer activity was determined by the stress-induced erosion test of Senay & Levine, Proc. Soc. Exp. Biol. Med., 124, 1221-3(1967) and anti-secretory activity by the test of H. Shay, D. Sun and H. Greenstein, Gastroentarology, 1954, 26, 903-13 as exemplified by Beattie et al J. Med. Chem., 20, 714 (1977). […] However, some compounds show activity in tests for anti-hypertensive activity.

[2] = test system: Anti-secretory (gastric secretion volume); assay: Anti-secretory test (Shay et al); format: in vivo
Experimental: as §1

[3] = test system: Female rats rendered hypertensive (unilateral nephrectomy, deoxycorticosterone acetate); assay: Anti-hypertensive activity, Procedure B (deoxycorticosterone acetate hypertensive rats, systolic pressure); format: in vivo, rat; conditions: 50 mg/kg orally, DOCA hypertensive female rats
Experimental: (§2) Some compounds of the invention were tested for anti-hypertensive activity by the following procedures.
Female rats are rendered hypertensive by unilateral nephrectomy and the s.c. implantation of a pellet containing 30 mg of deoxycorticosterone acetate. The drinking water is replaced by normal saline ad lib for the first four weeks following preparation. Blood pressures stabilise at a hypertensive level after 6 weeks. Systolic pressure is measured indirectly before dosing with a test compound using an E and M pneumatic pulse transducer and a Devices MX2 recorder. Groups of 4 rats are dosed orally with suspensions or solutions of the test compound in 0.5% hydroxypropyl-methyl-cellulose 0.9% saline vehicle. Blood pressures are recorded again at 2, 6 and 24 hours and the results, expressed as a percentage of the pre-dose values compared with those of a similar group of rats receiving vehicle alone.

[4] = test system: male spontaneously hypertensive rats; assay: Anti-hypertensive activity, Procedure A (spontaneously hypertensive rats, systolic pressure); format: in vivo, rat
Experimental: as §2
Systolic pressure of male spontaneously hypertensive rats is measured by an indirect technique using the Decker Caudal Plethylsmograph or other appropriate sensor. Groups usually consist of 4 rats. Drugs are usually administered orally. Pressures are usually read prior to drug administration and at 1.5, 4 and 24 hours thereafter. The schedule may be altered depending upon the behaviour of the drug.

| Compound | inhibition in vivo at 100 mg/kg [1] | Anti-secretory (Shay et al), % change in volume ([2]; Dose 30 mg/kg) | further results |
| --- | --- | --- | --- |
| Cc1[nH]cnc1CSc1cccc[n+]1C [Example 1, 1-Methyl-2(4-[5-methylimidazolyl]methylthio)pyridinium chloride] | 69% | -65% | Anti-secretory (Shay et al), % change in volume ([2]; Dose 10 mg/kg): -43%; Anti-hypertensive activity (Procedure B) [3]: inactive |
| C[n+]1ccccc1SCc1ccccn1 [Example 2, 1-Methyl-2(2-pyridyl)methylthio)pyridinium chloride] | 50% | -31% | – |
| C[n+]1ccccc1SCc1c[nH]cn1 [Example 3, 1-Methyl-2(4-imidazolylmethylthio)pyridinium chloride] | 67% | -71% | Anti-hypertensive activity (Procedure A) ([4]; 75 mg/kg orally): showed activity |
| Cc1[nH]cnc1CSc1nccn1C [Example 4, 1-Methyl-2(4-[5-methylimidazolyl]methylthio)imidazole] | 83% | -87% | inhibition in vivo at 30 mg/kg [1]: 58%; Anti-secretory (Shay et al), % change in volume ([2]; Dose 10 mg/kg): -33%; Anti-hypertensive activity (Procedure B) [3]: active |
| C[n+]1ccccc1SCc1cccnc1 [Example 5, 1-Methyl-2-(3-pyridylmethylthio)pyridinium chloride] | 58% | -55% | Anti-hypertensive activity (Procedure A) ([4]; 75 mg/kg orally): showed activity |
| Cc1[nH]cnc1CSc1ccccn1 [Example 6, 2-(4-[5-Methylimidazolyl]methylthio)pyridine] | – | – | inhibition in vivo at 3 mg/kg ([1]; Dose 3 mg/kg): 56%; inhibition in vivo at 10 mg/kg ([1]; Dose 10 mg/kg): 68%; Anti-hypertensive activity (Procedure A) ([4]; 75 mg/kg orally): inactive |
| Cc1[nH]cnc1CSc1ccncc1 [Example 7, 4-(4-[5-Methylimidazolyl]methylthio)pyridine] | 87% | -60% | Anti-hypertensive activity (Procedure B) [3]: inactive |
| c1ccc(SCc2c[nH]cn2)nc1 [Example 8, 2-(4-Imidazolylmethylthio)pyridine] | 79% | – | inhibition in vivo at 30 mg/kg [1]: 70% |
| C[n+]1ccccc1SCc1ccncc1 [Example 9, 1-Methyl-2-([(4-pyridyl)methyl]thio)pyridinium chloride] | – | – | Anti-hypertensive activity (Procedure A) ([4]; 50 mg/kg orally): showed activity |
| C[n+]1ccccc1SCc1ccc2ccccc2n1 [Example 10, 1-Methyl-2([(2-quinolyl)methyl]thio)pyridinium chloride] | – | – | Anti-hypertensive activity (Procedure A) ([4]; 50 mg/kg orally): showed activity |
| C[n+]1ccccc1SCCN1CCCCC1 [Example 11, 1-Methyl-2-[(2-piperidinoethyl)thio]pyridinium chloride] | – | -35% | – |
